For test [1], the target named is Phosphatidylinositol 4-kinase alpha (Homo sapiens) (UniProt P42356). The experiment in a line: Inhibition of PI4KA ATP labeling site in human Huh-7 cell lysate at 1 uM by KiNativ Profiling analysis relative to control. It counts as subcellular.
Test [2] deals with Serine/threonine-protein kinase 38 (Homo sapiens) (UniProt Q15208). The experiment in a line: Inhibition of NDR1 ACT labeling site in human Huh-7 cell lysate at 1 uM by KiNativ Profiling analysis relative to control. It counts as subcellular.
For test [3], the target named is Mitogen-activated protein kinase 8 (Homo sapiens, UniProt P45983). The test can be described thus: Inhibition of JNK1 (unknown origin) at 1 uM by Ambit Kinomescan binding assay relative to control.
For test [4], the target named is Serine/threonine-protein kinase 38 (Homo sapiens) (UniProt Q15208). The test can be described thus: Inhibition of NDR1 Lys2 labeling site in human A-375 cells at 5 uM by KiNativ Profiling analysis relative to control. In kind it is cell-based.
Test [5] has as its target T1, Dual specificity mitogen-activated protein kinase kinase 6 (Homo sapiens) (UniProt P52564).
T1 sequence (whole entry): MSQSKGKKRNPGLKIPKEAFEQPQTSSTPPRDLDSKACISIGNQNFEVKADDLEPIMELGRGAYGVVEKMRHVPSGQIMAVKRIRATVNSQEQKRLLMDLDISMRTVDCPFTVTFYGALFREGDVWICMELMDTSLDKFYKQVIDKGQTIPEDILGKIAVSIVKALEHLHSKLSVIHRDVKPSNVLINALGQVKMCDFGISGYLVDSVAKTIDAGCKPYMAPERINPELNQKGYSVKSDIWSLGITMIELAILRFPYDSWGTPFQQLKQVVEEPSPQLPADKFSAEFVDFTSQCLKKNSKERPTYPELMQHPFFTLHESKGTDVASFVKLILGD
The experiment in a line: Inhibition of MAP2K6 Lys2 labeling site in human A-375 cells at 0.5 uM by KiNativ Profiling analysis relative to control. It counts as cell-based.

Test [6] concerns the target Serine/threonine-protein kinase 38-like (Homo sapiens) (UniProt Q9Y2H1). The experiment in a line: Inhibition of NDR2 ACT labeling site in human A-375 cells at 5 uM by KiNativ Profiling analysis relative to control. In kind it is cell-based.
In test [7] the target is Cyclin-dependent kinase 17 (Homo sapiens) (UniProt Q00537). The experiment in a line: Inhibition of PCTAIRE2 K2 labeling site in human Huh-7 cells at 10 uM by KiNativ Profiling analysis relative to control. It counts as cell-based.
The target in test [8] is Interferon-induced, double-stranded RNA-activated protein kinase (Homo sapiens) (UniProt P19525). The experiment in a line: Inhibition of PKR K2 labeling site in human Huh-7 cells at 1 uM by KiNativ Profiling analysis relative to control. In kind it is cell-based.
In test [9] the target is Proto-oncogene tyrosine-protein kinase Src (Homo sapiens, UniProt P12931). The experiment in a line: Inhibition of SRC K1 labeling site in human Huh-7 cells at 10 uM by KiNativ Profiling analysis relative to control. It counts as cell-based.
For test [10], the target named is T2, Acylglycerol kinase, mitochondrial (Homo sapiens) (UniProt Q53H12).
T2 sequence (whole entry): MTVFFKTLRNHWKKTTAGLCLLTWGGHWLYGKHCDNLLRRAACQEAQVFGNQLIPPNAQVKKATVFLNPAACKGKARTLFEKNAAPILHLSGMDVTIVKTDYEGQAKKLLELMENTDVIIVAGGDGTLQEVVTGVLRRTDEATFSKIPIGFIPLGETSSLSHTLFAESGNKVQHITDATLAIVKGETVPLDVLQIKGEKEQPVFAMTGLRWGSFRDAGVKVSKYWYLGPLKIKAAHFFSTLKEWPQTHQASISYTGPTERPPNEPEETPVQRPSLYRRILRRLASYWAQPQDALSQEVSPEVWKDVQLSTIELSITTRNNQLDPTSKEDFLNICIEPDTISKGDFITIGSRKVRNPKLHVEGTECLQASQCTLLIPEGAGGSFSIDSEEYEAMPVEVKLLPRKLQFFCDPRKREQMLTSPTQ
The experiment in a line: Inhibition of AGK ATP labeling site in human Huh-7 cells at 1 uM by KiNativ Profiling analysis relative to control. It counts as cell-based.

Test [11] concerns the target Tyrosine-protein kinase TXK (Homo sapiens) (UniProt P42681). The test can be described thus: Inhibition of TXK (unknown origin) at 10 uM by Ambit Kinomescan binding assay relative to control; values are per cent of control.
The target in test [12] is Cyclin-dependent kinase 11A (Homo sapiens) (UniProt Q9UQ88). The experiment in a line: Inhibition of CDC2L2 (unknown origin) at 10 uM by Ambit Kinomescan binding assay relative to control; values are per cent of control.
For test [13], the target named is DNA-PK/Ku70/Ku85 (Homo sapiens) (UniProt P78527+P12956+P13010). The test can be described thus: Inhibition of DNAPK ATP labeling site harbouring GHDEREHPFLVKGGEDLRQDQR in human A-375 cells at 0.5 uM by KiNativ Profiling analysis relative to control. In kind it is cell-based.
Test [14] concerns the target T3, Serine/threonine-protein kinase TAO1 (Homo sapiens) (UniProt Q7L7X3).
T3 sequence (whole entry): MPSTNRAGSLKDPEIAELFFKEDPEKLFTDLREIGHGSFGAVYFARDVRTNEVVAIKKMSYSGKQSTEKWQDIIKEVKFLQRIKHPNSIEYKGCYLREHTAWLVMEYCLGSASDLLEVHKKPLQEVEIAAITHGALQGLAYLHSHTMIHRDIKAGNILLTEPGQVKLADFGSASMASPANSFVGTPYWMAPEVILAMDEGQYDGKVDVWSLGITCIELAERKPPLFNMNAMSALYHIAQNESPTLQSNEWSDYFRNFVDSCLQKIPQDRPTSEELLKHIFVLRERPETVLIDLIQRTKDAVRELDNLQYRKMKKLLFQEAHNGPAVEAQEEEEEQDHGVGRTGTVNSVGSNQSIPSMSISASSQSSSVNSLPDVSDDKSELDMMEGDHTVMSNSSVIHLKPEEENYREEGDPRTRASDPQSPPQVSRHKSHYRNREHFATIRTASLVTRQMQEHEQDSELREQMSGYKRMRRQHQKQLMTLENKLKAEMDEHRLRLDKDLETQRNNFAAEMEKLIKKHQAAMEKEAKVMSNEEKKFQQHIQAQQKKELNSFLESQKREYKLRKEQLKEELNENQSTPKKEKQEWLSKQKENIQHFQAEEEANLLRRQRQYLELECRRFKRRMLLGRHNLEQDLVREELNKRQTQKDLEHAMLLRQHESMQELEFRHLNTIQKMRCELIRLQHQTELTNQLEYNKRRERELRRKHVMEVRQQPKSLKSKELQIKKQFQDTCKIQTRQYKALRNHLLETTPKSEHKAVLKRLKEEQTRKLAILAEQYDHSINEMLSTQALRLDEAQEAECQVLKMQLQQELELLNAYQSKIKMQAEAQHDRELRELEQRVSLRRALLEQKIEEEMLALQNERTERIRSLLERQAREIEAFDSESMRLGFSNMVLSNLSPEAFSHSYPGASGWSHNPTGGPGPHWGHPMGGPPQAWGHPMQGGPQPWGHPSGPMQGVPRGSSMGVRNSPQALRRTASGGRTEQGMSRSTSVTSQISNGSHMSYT
The experiment in a line: Inhibition of TAOK1 (unknown origin) at 10 uM by Ambit Kinomescan binding assay relative to control; values are per cent of control.

Activity calls are given as the source filed them. No cut-off for these calls is given here.

Sequence of Serine/threonine-protein kinase 38 (Homo sapiens) (Q15208 2-465 limits assumed): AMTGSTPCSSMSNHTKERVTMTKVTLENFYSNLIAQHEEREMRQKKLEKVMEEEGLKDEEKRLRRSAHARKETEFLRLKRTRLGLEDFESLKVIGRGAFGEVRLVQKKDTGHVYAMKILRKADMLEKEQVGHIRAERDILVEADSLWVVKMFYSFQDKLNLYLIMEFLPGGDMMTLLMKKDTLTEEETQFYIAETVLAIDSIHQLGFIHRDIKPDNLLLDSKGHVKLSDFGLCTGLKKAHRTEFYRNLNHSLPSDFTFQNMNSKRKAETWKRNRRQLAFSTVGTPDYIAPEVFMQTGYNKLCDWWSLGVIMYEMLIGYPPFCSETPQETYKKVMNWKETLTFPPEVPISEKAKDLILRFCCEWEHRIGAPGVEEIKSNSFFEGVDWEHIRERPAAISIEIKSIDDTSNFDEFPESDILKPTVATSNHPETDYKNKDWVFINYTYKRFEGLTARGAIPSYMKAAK
Sequence of Interferon-induced, double-stranded RNA-activated protein kinase (Homo sapiens) (P19525 whole entry): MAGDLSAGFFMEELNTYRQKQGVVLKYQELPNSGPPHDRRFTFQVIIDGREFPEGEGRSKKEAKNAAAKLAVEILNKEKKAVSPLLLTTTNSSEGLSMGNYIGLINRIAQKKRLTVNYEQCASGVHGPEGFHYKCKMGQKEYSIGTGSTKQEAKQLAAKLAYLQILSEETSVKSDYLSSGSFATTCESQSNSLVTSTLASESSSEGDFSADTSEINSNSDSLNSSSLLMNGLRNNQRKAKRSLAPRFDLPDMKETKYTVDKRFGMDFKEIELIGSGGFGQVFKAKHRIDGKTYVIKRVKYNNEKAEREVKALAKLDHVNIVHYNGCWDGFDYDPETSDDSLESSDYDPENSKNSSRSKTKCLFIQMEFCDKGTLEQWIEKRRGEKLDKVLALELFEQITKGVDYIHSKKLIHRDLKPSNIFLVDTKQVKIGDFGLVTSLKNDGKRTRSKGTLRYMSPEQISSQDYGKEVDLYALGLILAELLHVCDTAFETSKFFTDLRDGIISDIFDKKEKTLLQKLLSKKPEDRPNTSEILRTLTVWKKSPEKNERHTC
Sequence of Cyclin-dependent kinase 11A (Homo sapiens) (Q9UQ88 whole entry): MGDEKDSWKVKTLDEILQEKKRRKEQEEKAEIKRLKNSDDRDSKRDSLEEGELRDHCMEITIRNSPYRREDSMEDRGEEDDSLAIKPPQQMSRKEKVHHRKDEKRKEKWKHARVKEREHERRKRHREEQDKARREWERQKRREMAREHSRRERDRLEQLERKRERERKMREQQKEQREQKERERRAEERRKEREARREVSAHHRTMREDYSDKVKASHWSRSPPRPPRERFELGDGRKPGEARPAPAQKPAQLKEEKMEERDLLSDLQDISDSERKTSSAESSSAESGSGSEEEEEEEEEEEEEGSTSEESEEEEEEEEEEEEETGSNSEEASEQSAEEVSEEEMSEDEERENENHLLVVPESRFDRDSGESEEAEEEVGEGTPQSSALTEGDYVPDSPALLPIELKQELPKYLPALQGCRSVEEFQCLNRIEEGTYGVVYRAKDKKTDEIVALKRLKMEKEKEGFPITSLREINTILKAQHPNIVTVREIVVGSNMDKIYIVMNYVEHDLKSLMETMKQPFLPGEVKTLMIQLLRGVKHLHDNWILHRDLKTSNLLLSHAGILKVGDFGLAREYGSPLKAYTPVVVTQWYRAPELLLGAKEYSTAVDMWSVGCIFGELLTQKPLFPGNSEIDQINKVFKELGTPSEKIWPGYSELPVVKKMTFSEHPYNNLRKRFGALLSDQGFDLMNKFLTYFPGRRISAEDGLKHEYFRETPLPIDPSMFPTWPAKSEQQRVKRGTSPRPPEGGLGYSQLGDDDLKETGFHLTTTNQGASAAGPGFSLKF
Sequence of Proto-oncogene tyrosine-protein kinase Src (P12931 2-536 limits assumed): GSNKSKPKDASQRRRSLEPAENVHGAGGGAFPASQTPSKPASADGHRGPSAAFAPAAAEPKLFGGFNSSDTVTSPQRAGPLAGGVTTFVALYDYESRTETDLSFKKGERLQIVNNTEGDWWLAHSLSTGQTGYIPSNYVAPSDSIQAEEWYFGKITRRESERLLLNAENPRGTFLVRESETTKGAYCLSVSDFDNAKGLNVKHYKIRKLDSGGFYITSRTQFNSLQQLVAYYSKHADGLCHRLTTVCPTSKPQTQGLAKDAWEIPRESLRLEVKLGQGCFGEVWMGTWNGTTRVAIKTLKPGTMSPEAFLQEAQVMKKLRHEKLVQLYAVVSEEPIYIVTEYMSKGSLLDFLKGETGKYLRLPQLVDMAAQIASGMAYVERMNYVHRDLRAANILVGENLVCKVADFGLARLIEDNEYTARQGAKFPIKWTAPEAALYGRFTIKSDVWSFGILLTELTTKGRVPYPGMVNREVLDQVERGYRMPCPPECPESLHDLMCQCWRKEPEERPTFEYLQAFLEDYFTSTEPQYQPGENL
Sequence of Cyclin-dependent kinase 17 (Homo sapiens) (Q00537 whole entry, looked up): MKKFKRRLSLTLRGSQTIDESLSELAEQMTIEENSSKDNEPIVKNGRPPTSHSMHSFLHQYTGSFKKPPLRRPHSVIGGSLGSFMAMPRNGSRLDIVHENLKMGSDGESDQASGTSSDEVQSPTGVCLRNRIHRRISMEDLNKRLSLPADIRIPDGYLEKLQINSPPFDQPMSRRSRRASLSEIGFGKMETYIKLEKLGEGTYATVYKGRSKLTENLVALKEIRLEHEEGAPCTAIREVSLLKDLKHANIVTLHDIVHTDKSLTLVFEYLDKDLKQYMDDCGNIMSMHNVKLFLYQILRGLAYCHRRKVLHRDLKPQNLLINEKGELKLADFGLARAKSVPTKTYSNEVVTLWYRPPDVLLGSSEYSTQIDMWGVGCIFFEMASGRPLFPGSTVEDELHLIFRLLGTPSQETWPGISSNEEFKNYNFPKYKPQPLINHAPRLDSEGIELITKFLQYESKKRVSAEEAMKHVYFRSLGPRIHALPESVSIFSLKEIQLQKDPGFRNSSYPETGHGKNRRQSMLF
Sequence of Phosphatidylinositol 4-kinase alpha (Homo sapiens) (P42356 whole entry, looked up): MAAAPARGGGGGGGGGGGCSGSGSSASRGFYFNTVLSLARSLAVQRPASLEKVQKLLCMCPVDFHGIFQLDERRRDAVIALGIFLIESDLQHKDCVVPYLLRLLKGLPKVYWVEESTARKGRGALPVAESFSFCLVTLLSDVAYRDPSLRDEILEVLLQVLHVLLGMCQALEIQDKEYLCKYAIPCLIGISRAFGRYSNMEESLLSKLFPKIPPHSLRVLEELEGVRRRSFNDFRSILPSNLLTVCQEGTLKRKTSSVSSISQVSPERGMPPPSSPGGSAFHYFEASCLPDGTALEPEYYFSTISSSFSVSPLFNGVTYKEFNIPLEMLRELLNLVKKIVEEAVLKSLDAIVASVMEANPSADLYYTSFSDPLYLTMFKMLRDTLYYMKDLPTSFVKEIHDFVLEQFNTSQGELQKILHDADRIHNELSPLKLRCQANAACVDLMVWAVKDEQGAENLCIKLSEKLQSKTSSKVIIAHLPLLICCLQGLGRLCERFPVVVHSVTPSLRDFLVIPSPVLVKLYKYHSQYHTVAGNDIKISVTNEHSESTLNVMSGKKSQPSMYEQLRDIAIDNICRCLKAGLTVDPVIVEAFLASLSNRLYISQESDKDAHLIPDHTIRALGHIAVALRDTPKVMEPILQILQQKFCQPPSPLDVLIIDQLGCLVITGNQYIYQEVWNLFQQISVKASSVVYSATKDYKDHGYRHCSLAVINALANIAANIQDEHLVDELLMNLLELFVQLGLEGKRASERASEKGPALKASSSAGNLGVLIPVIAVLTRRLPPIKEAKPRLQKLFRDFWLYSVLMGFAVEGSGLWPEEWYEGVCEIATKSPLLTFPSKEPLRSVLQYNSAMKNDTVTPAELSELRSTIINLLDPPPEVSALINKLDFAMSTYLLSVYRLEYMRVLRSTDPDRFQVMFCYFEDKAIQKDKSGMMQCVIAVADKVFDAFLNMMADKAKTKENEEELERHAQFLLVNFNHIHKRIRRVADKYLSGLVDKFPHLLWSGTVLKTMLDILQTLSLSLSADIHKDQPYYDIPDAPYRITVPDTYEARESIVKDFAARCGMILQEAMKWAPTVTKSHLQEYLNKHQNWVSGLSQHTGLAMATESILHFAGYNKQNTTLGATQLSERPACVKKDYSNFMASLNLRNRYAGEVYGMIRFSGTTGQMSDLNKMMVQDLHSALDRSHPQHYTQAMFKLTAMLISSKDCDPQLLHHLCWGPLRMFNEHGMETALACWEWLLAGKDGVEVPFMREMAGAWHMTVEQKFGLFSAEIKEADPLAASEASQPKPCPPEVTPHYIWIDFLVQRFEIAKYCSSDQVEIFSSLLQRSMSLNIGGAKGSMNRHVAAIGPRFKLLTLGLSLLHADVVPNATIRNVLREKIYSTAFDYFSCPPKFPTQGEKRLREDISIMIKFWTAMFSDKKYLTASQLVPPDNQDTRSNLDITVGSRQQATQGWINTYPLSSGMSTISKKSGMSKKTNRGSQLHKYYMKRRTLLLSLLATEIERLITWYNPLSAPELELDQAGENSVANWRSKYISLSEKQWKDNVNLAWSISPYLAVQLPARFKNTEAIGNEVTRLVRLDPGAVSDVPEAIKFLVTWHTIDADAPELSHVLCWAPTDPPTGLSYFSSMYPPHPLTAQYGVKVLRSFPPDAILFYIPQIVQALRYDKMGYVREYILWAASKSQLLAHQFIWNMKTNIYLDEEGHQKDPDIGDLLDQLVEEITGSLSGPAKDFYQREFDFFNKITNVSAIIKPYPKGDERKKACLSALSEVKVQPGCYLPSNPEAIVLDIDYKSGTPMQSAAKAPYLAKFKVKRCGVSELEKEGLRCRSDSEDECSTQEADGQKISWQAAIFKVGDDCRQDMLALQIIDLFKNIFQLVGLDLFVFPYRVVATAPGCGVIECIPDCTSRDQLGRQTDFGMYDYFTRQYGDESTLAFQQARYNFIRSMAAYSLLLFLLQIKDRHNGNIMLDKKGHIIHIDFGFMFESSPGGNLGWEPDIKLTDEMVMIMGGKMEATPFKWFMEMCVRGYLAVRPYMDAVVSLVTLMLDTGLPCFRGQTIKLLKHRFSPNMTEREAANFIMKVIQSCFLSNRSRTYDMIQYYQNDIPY

Take `CNc1cc(Oc2cc(C(=O)Nc3cc(N4CCN(C)CC4)cc(C(F)(F)F)c3)ccc2C)ncn1`: the inhibition in [1] is 2%; in [2] it was 4.2%.

With `CCN1CCN(Cc2ccc(NC(=O)c3ccc(C)c(/C=C/c4cnc5[nH]ccc5c4OC)c3)cc2C(F)(F)F)CC1`, the inhibition in test [3] was 77%; in [4], 25.3%; in test [5] it was -7%; in test [6], -2.6%.

Take `CCN1CCN(Cc2ccc(NC(=O)c3ccc(C)c(Oc4ccnc5[nH]ccc45)c3)cc2C(F)(F)F)CC1`: the inhibition in [7] is 41.7%; in [8], 4%; in test [9] it was 50.1%; in [13] it was -6%. In [10], the inhibition entry was “inactive”. Besides, the residual activity in test [11] is 12%; in [14], 3%. This compound also gave a percent of control in test [12] of 0.05%.

For the origin of these results see ChEMBL document CHEMBL5696442, “Discovery of type II inhibitors of TGFβ-activated kinase 1 (TAK1) and mitogen-activated protein kinase kinase kinase kinase 2 (MAP4K2)” (J Med Chem, 2015).
